From ChEMBL document CHEMBL5104233, “Advanced approaches of developing targeted covalent drugs” (RSC Med Chem, 2022) come the findings set out here.

One experiment relates to Jurkat. As to the kind of experiment: Antiproliferative activity against human Jurkat cells assessed as inhibition of cell growth incubated for 72 hrs by Celltiter Glo assay. Format: functional, cell-based. (Cellular ATP, detected with luciferase, serves as a proxy for viable cell number.)
Experiment [1] concerns the target Human immunodeficiency virus type 1 reverse transcriptase (Human immunodeficiency virus 1, UniProt Q72547, Y181C). As to the kind of experiment: Inhibition of HIV-1 reverse transcriptase Y181C mutant.
Another experiment has as its target CDK7/Cyclin H/MNAT1 (Homo sapiens, UniProt P50613). Briefly: Inhibition of CDK7/Cyclin H/MAT1 (unknown origin) in leukemia cells. Format: cell-based, Leukemia cell.
Experiment [2] has as its target T1, Cyclin-dependent kinase 2 (Homo sapiens, UniProt P24941). As to the kind of experiment: Inhibition of CDK2 (unknown origin).
Experiment [3] concerns the target T1, Cyclin-dependent kinase 2. Briefly: Inhibition of pan-CDK2 (unknown origin) relative to control. The conditions noted are these: concentration not given here.
For the next experiment, the system named is CD4+ve Th. As to the kind of experiment: Inhibition of Th1 cell differentiation in human peripheral blood CD4+ve Th cells assessed as decrease in IFNgamma production measured after 5 days. The experiment is classed as functional, cell-based. The conditions noted are these: 120 h.

SMILES strings stand for the structures.

Chain of CDK7/Cyclin H/MNAT1 (P51946 whole entry): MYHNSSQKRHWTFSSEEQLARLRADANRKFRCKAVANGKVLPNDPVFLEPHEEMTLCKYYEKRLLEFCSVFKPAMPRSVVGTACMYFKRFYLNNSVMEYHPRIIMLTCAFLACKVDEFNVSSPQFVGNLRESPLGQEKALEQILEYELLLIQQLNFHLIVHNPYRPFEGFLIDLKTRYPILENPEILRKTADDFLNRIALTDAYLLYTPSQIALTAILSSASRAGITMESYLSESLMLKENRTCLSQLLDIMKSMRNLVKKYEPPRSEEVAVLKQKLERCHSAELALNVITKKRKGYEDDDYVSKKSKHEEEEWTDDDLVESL
Chain of CDK7/Cyclin H/MNAT1 (P50613 whole entry): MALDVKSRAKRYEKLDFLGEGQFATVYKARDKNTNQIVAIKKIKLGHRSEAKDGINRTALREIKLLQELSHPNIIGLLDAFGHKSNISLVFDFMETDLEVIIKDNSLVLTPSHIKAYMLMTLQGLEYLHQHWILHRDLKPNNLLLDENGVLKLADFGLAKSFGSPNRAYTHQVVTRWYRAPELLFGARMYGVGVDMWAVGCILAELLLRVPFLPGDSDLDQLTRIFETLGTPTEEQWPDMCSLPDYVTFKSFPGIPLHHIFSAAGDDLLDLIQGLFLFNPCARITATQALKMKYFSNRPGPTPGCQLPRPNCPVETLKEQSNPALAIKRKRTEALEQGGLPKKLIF
Chain of CDK7/Cyclin H/MNAT1 (P51948 whole entry, further chain): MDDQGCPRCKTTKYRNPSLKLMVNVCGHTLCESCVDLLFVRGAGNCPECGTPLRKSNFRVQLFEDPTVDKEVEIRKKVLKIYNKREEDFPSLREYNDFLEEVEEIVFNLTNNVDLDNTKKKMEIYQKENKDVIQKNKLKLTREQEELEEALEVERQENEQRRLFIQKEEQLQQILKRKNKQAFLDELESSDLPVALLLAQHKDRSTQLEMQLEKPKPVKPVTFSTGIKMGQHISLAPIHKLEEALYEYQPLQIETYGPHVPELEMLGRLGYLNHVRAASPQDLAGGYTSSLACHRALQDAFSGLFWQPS

For `CN(C)C/C=C/C(=O)Nc1ccc(C(=O)N2CCC[C@H](Nc3ncc(Cl)c(-c4c[nH]c5ccccc45)n3)C2)cc1`, in the experiment with Jurkat, the IC50 (as a rule, the concentration that inhibits the measured activity by half) amounted to 50 nM. `C=CC(=O)N(C)c1cc(Oc2ccccc2OCCn2ccc(=O)[nH]c2=O)c(C)c2cc(C#N)ccc12`: the midpoint of inhibition in experiment [1], the IC50, lay at 400 nM. For `C=C(F)C(=O)N1CCN(c2nc(OC[C@@H]3CCCN3C)nc3c2CCN(c2cccc4cccc(Cl)c24)C3)C[C@@H]1CC#N` [ADAGRASIB], the IC50 against CDK7/Cyclin H/MNAT1 came out at 1.3 nM. For `Cc1c(Oc2ccccc2OCCn2ccc(=O)[nH]c2=O)cc(N(C)C(=O)CCl)c2ccc(C#N)cc12`, in experiment [1], half-maximal inhibition (IC50) was put at 480 nM. On to `C=CS(=O)(=O)c1ccc(Nc2nc(OCC3CCCCC3)c3nc[nH]c3n2)cc1`, for which the IC50 in experiment [2] came out at 160 nM. In addition, in experiment [3], the inhibition – broadly, the change of the read-out against control, counted positive when it falls – was determined as 50%. On to `C=CC(=O)N1C[C@H](Nc2ncnc3[nH]ccc23)CC[C@@H]1C` [RITLECITINIB], for which the IC50 in the experiment on CD4+ve Th was 48 nM.
